In patent publication US20140088006A1, “Stem Cell Mobilization and Tissue Repair and Regeneration” (Wellstat Therapeutics Corporation, priority 2011, published 2014):
Several values for one entry are separate records, joined by “and”; a condition that tells them apart may be missing. Equal entries are not always repeated. No end group written: not given here.

What was measured:
[1] = test system: CFU-GEMM / CFU-GM colony-forming cells; assay: CFU colony assay of peripheral blood on day 7 after 5 daily subcutaneous injections; type: in vivo, DBA/2J male mice
Protocol: Mobilization of hematopoietic stem and progenitor cells from bone marrow into peripheral blood is important for tissue regeneration. However, this physiological mechanism is often insufficient, including in elderly patients and people with diabetes. In order to look at the ability of Compound X mobilized stem cells to mediate tissue regeneration, multiple in vivo injections of Compound X were administered. A group of DBA/2J male mice were injected subcutaneously for 5 consecutive days with 250 ug/kg Compound X in Saline. Another group of mice received injections of vehicle only. Peripheral blood from 3 mice from each of these groups was then harvested from the orbital plexus at 7 days post initial injection. Blood was also harvested and pooled from 3 naïve mice to serve as an additional control group. To determine mobilization of pluripotent colony-forming cells from bone marrow into peripheral blood, mononuclear cells obtained from blood were plated into MethoCult 3434 media (Stem Cell Technologies 03434). Briefly, peripheral blood from three mice was pooled, diluted (1:1, v/v) with 0.9% saline (APP Pharmaceutical) and layered (2:1, v/v) onto 1-Step™1.077 A (Accurate Chemicals AN224510) in 15-ml centrifuge tubes. Cells were centrifuged at 600×g for 20 min at room temperature. The mononuclear cells were harvested from the interface between the plasma layer and the 1-Step™ A solution using a 1-ml syringe and 16G blunt-end needle (Stem Cell Technologies 28120). The cells were transferred to 15-ml centrifuge tubes and washed twice in 1×PBS. The cells were placed into 35-mm Petri dishes at 100,000 cells per dish with 5 dishes per group. Cells incubated for 10 days in a 37° C. and 5% CO2 humidified incubator. CFU-GM colonies consisting of granulocytic and monocytic cells and CFU-GEMM colonies representing mixed cell populations of granulocytes, macrophages and erythroid cells were then scored using an inverted microscope. Blood was taken at Zeitgeber Time 4 (ZT4) which corresponded to the physiological time of cell emigration from bone marrow—the circadian stem cell mobilization peak.

[2] = test system: full-thickness cutaneous wounds; assay: Excisional wound healing model in db/db mice; type: in vivo; parameters: Wound area measurements, Day 14: unit not given here; conditions: for Wound healing rate: individual mice; for Wound healing rate / Wound area measurements, Day 14 / Wound area, Percent of original size: 5 mg/kg; for Wound area measurements, Day 14 / Wound area, Percent of original size: individual wounds
Protocol: The average time to wound closure between db/db mice and non-diabetic C57BL6 mice was compared in a pilot experiment. Paired 6-mm full-thickness cutaneous wounds were made on the dorsa of mice after depilation with a sterile Miltex biopsy punch (VWR #21909-144). To prevent wound contraction during the healing process, 0.5 g/mL polyisobutyl methacrylate (Sigma #445754) in toluene (Sigma #244511) was applied over wounds 24 hours after wounding. After methacrylate hardened, a transparent dressing (Tagaderm, Lab Safety Supply #53379) was placed over wounds. Two groups of mice (5 mice per group) received intravenous injections of either Vehicle or Compound X (5 mg/kg) starting on day one post wounding and continuing daily for four consecutive days at Zeitgeber time 4 (ZT4), 4 hr after onset of light to time mobilization of stem cells with circadian oscillations (Frenette et. al. 2008).
Digital photographs of the wounds were taken on days 0, 7, 10 and 14. Wound areas were measured by manually tracing the border of unhealed area and quantified as a percent area of the original wound size. The size of the traced area was calculated automatically using the Image J (NIH) analysis program. The following calculation was used to determine the wound healing rate: (Area of original wound−Area of remaining wound)÷Area of original wound×100. […]
In the next experiment, 2 groups of db/db mice (6 mice per group) received paired 6-mm full-thickness cutaneous wounds. Mice then received intravenous injections of either Vehicle or Compound X (5 mg/kg) starting on day one post wounding and continuing daily for four consecutive days at ZT4. Wounds were monitored until complete closure in control group on day 21. To limit wound contraction during the healing process, a donut shaped silicone splint was centered on the wound and glued (cyanoacrylate adhesive) to the skin.
Ten mice were treated per group with 3 mice from each group being sacrificed for histology at day 10 post-wounding. Wound closure in the Compound X treated group was mostly achieved by the 14th day, while control wounds were closed between days 18-21 post-wounding. […] This was similar to data generated in previous experiments.

[3] = Blood glucose before and 7 weeks after treatment in wound healing study; type: in vivo, db/db mice; conditions: 4 days i.v. treatment course; 7 weeks after the treatment
Protocol: Note, that mice were taken for the wound healing experiment when their glucose level was high; baseline glucose was measured by glucometer from tail bleed one day before the wound healing experiment next glucose measurement was taken at the end of the study, 7 weeks after the treatment with intravenous injections of Compound X or Saline.

[4] = 250 ug/kg s.c. 5 consecutive days, day 7
[5] = 250 ug/kg s.c. 5 consecutive days, day 7, individual dishes
[6] = 250 ug/kg/day for 5 days, day 7
[7] = DBA mice, multiple s.c. 250 ug/kg
[8] = i.v. 5 mg/kg daily for 4 days, Day 7
[9] = i.v. 5 mg/kg daily for 4 days, Day 10
[10] = second experiment, i.v. 5 mg/kg daily for 4 days, 14 days post-wounding

Sequence: FPHFDLSHGSAQV [Compound X, tridecapeptide that acts on stem cells]
- CFU-GEMM AVG [1, 4]: 11.4 colonies/100,000 MNCs
- CFU-GEMM Average [1, 4]: 79.8 Colonies/ml of Peripheral Blood
- CFU-GM AVG [1, 4]: 12.4 colonies/100,000 MNCs
- CFU-GM Average [1, 4]: 86.8 Colonies/ml of Peripheral Blood
- CFU-GEMM Colony # [1, 5]: 8 colonies/100,000 MNCs (2×) and 13 colonies/100,000 MNCs and 12 colonies/100,000 MNCs and 16 colonies/100,000 MNCs
- CFU-GM Colony # [1, 5]: 13 colonies/100,000 MNCs (2×) and 14 colonies/100,000 MNCs (2×) and 8 colonies/100,000 MNCs
- number of circulating CFU-GM [1, 6]: did not change
- total CFU-GEMM number in circulation vs naïve or vehicle mice [1, 6]: 3 times higher
- increase in CFU-GEMM number per ml of blood vs saline control group [1, 7]: 3.3 fold
- increase in CFU-GEMM number per ml of blood vs untreated control group [1, 7]: 3.8 fold
- Wound healing rate, Average [2, 8]: 14.22%
- Wound healing rate [2, 8]: 5.14% and 6.40% and 7.85% and 8.83% and 42.89%
- Wound healing rate, Average [2, 9]: 38.68%
- Wound healing rate [2, 9]: 17.47% and 13.96% and 65.36% and 17.51% and 79.10%
- wound closure ([2]; i.v. 5 mg/kg daily for 4 days, ten days after wounding): 39%
- Wound area measurements, Day 14 ([2]; second experiment (6 mice per group, silicone splint), i.v. 5 mg/kg daily for 4 days): 5865 and 19152 and 50090 and 21199 and 49486 and 3603 and 24952 and 59032 and 74676 and 52782 and 11094 and 58870
- Wound area, Percent of original size, Average [2, 10]: 8.05%
- Wound area, Percent of original size [2, 10]: 1.11% and 5.19% and 10.08% and 7.02% and 10.48% and 0.82% and 4.45% and 12.48% and 14.28% and 13.38% and 2.48% and 14.93%
- Wound area measurements, Day 14 ([2]; third experiment (ten mice per group), i.v. 5 mg/kg): 4104 and 24930 and 972 and 100098 and 7440 and 2808 and 324 and 78 and 180 and 21924 and 53715 and 22554 and 20406 and 168663
- wounds closed by day 14 (95%-100% closure) ([2]; third experiment, i.v. 5 mg/kg): 11 of 14
- Wound area, Percent of original size ([2]; third experiment, i.v. 5 mg/kg, 14 days post-wounding): 0.83% and 5.59% and 0.19% and 18.81% and 1.56% and 0.61% and 0.06% and 0.02% and 0.03% and 4.11% and 10.3% and 5.11% and 5.24% and 29.82%
- time to wound closure ([2]; third experiment, i.v. 5 mg/kg, control closed between days 18-21): ≤ 14 days
- glucose level in blood [3]: decreased glucose level
